According to US7947695B2, “5-membered annelated heterocyclic pyrimidines as kinase inhibitors” (Janssen Pharmaceutica NV, priority 2005, dated 2011):

Legend:
CDK4/cyclinD1 = CDK4/cyclinD1 (Homo sapiens, UniProt P11802); assay: In vitro filtration assay for CDK4 inhibitory activity (pRb phosphorylation, [33P]-ATP); format: biochemical; details: GST-pRb substrate, 1 μM unlabeled ATP, 25° C. 45 minutes, read-out: cdk4 filter (pIC50) (converted)
Procedure: (§1) Compounds of the present invention were tested in an in vitro filtration assay assessing CDK4 activity by means of its pRb-phosphorylation activity using [^33P]-ATP as phosphor donor. The radioactive phosphorylated pRb is then captured on filtermats and the incorporated [^33P] quantitated using a phosphorage storage screen.
The CDK4 kinase reaction is performed at 25° C. for 45 minutes in a 96-well microtiterplate. The 25 μl reaction volume contains 50 mM Hepes pH 7.5, 10 mM NaF, 10 mM MgCl2, 1 mM Na3VO4, 1 μM unlabeled ATP, 1 mM DTT, 0.5 μCi AT^33P, 0.76 μg/well GST-pRb, 50 ng CDK4/cyclinD1/well and 0.2% compound in 100% DMSO.
(§2) The reaction is stopped by adding 5 μl of a 3% phosphoric acid solution. 10 μl of the reaction mixture is then spotted onto a Filtermat P30 filter (Wallac) and washed 3 times for 5 min. in 75 mM phosphoric acid and 1 time for 5 min. in methanol prior to drying and quantification on the Typhoon (Amersham) using a phosphorage storage screen.
(§3) For each experiment, controls (containing enzyme (complex) and DMSO without compound), a blank incubation (containing DMSO but no enzyme (complex) or compound) and samples (containing enzyme (complex) and compound dissolved in DMSO) were run in parallel. All compounds tested were dissolved and eventually further diluted in DMSO. […] In each test, the blank value was subtracted from both the control and the sample values. The control sample represented maximal enzyme activity. For each sample, the amount of cpm was expressed as a percentage of the mean cpm value of the controls. When appropriate, IC50-values (concentration of the drug, needed to reduce the enzyme activity to 50% of the control) were computed using linear interpolation between the experimental points just above and below the 50% level. Herein the effects of test compounds are expressed as pIC50 (the negative log value of the IC50-value).

AURORA B = AURORA B (Homo sapiens, UniProt Q96GD4); assay: In vitro filtration assay for AURORA B inhibitory activity; format: biochemical; details: peptide (C(LRRWSLG)×4), 1 μM unlabeled ATP, 25° C. 40 minutes, read-out: Aurora B see C.3 (pIC50) (converted)
Procedure: as §1, with “AURORA B” for “CDK4”, “substrate-phosphorylation” for “pRb-phosphorylation”, “substrate” for “pRb”
The Aurora-B kinase reaction is performed at 25° C. for 40 minutes in a 96-well microtiterplate. The 25 μl reaction volume contains 60 mM Hepes pH 7.5, 3 mM MgCl2, 3 mM MnCl2, 3 μM Na3VO4, 50 μg/ml PEG20000, 1 μM unlabeled ATP, 1 mM DTT, 0.2 μCi AT^33P, 0.25 μg/well peptide (C(LRRWSLG)×4),100 ng Aurora-B/well and 0.2% compound in 100% DMSO. The reaction is stopped by adding 5 μl of a 3% phosphoric acid solution. 10 μl of the reaction mixture is then spotted onto a Filtermat P30 filter (Wallac) and washed 3 times for 5 min. in 75 mM phosphoric acid and 1 time for 5 min. in methanol prior to drying and quantification on the Typhoon (Amersham) using a phosphorage storage screen.
as §3

AURORA A = target: T1, AURORA A (Homo sapiens, UniProt O14965); assay: In vitro filtration assay for AURORA A inhibitory activity; format: biochemical; details: Kemptide substrate, 1 μM unlabeled ATP, 25° C. 40 minutes, read-out: Aurora A see C.2 (pIC50) (converted)
T1 sequence (O14965 1-403): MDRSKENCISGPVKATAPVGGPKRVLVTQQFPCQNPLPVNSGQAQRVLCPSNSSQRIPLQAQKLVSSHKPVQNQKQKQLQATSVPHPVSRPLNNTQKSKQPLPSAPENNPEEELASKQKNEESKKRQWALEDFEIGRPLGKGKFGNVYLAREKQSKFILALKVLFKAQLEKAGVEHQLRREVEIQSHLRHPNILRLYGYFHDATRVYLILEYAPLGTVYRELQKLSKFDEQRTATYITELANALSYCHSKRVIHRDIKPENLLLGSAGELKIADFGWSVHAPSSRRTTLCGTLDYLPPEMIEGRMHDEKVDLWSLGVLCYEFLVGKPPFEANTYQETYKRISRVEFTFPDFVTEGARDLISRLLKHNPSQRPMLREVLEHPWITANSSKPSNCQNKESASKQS
Procedure: as §1, with “AURORA A” for “CDK4”, “substrate-phosphorylation” for “pRb-phosphorylation”, “substrate” for “pRb”
The Aurora-A kinase reaction is performed at 25° C. for 40 minutes in a 96-well microtiterplate. The 25 μl reaction volume contains 12 mM MOPS pH 7, 0.4 mM EDTA, 0.002% Brij35, 1% glycerol, 0.02% beta-mercapto-ethanol, 0.2 mg/ml BSA, 1 μM unlabeled ATP, […] [^33P]-ATP, 200 μM Kemptide, 3 ng Aurora A/well and 0.2% compound in 100% DMSO.
as §2, §3

[1] = target: CDK4/cyclinD1 enzyme complex (Homo sapiens, UniProt P11802); assay: In vitro scintillation proximity assay (SPA) for CDK4 inhibitory activity; format: biochemical; details: GST-pRb substrate, 33P-ATP, 25° C. 30 minutes, read-out: cdk4 SPA see C.4 (pIC50) (converted)
Procedure: Compounds of the present invention were tested in an in vitro assay based on SPA technology.
In principle, the assay relies upon the well established SPA technology for the detection of CDK4 phosphorylated proteins, i.e pRb. This phosphorylation is performed using I0 CDK4/cyclinD1 enzyme complex and ^33P-ATP as phosphor donor.
The CDK4 SPA kinase reaction is performed at 25° C. for 30 minutes in a 96-well microtiter plate. The 100 μl reaction volume contains 40 mM Hepes, 6 mM NaF, 6 mM MgCl2, 0.6 mM Na3VO4, 2 μg/ml Pepstatin, 2 μg/ml Leupeptin, 2 μg/ml Aprotinin, 50 μg/ml TLCK, 150 μg/ml DTT, 0.3 μg/ml benzamide, 0.1 μCi ^33P-ATP, 1.7 μg GST-pRb, 50 ng CDK4/cyclinD1/well and 0.2% compound in 100% DMSO. The reaction is stopped by adding to each well 100 μl of the glutathione coated SPA beads (10 mg/ml in PBS+10 mM EDTA+100 μM ATP+0.05% Triton X 100). The plates are then shaked at 300 rpm for 30 min to allow binding of the GST-tagged substrate to the glutathione coated beads. The beads are allowed to settle at the bottom of the plate for 30 minutes. The microtiterplates are centrifuges at 800 rpm for 10 minutes and the amount of phosphorylated (^33P) substrate is determined by counting (30 sec/well) in a microtiterplate scintillation counter.
as §3

Sequence of AURORA B (Q96GD4 whole entry): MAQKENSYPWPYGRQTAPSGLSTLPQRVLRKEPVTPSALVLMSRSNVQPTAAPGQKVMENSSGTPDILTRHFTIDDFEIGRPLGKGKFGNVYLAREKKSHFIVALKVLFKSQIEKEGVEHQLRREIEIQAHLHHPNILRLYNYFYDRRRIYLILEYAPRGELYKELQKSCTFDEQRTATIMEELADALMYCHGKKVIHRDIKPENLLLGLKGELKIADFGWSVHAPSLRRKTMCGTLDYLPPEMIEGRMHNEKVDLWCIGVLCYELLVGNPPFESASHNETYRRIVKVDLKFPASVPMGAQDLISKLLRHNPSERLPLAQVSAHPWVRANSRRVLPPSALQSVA
Sequence of CDK4/cyclinD1 enzyme complex (P11802 whole entry): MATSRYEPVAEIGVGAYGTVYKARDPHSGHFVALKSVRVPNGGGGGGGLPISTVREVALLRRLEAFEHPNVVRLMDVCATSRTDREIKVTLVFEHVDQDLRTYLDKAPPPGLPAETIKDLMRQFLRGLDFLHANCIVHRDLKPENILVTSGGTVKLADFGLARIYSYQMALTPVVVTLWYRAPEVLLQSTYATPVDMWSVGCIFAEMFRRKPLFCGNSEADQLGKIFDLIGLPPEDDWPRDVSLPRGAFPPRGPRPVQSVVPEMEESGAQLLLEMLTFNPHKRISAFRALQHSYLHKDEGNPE
Sequence of CDK4/cyclinD1 enzyme complex (P24385 whole entry partner): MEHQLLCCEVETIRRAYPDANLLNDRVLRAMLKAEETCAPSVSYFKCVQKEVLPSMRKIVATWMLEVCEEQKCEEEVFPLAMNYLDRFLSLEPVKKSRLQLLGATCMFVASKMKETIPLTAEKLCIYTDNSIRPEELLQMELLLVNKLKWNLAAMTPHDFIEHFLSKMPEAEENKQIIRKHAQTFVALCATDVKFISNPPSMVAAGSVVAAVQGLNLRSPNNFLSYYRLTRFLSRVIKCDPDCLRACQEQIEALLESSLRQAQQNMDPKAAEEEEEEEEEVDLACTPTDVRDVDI
Sequence of CDK4/cyclinD1 (P11802 whole entry): as the sequence (P11802 whole entry) above
Sequence of CDK4/cyclinD1 (P24385 whole entry partner): as the sequence (P24385 whole entry partner) above

| Compound | IC50 (CDK4/cyclinD1) [nM] | IC50 (AURORA B) [nM] | IC50 (AURORA A) [nM] | IC50 [1] [nM] | melting point [°C] |
| --- | --- | --- | --- | --- | --- |
| CN1CCN(c2ccc(Nc3ncc4c(=O)[nH]n(C5CCCC5)c4n3)cc2)CC1 [compound 91] | 631 | > 10000 | 7940 | 1260 | – |
| O=c1[nH]n(C2CCCCC2)c2nc(Nc3ccc(N4CCC(CCCO)CC4)cc3)ncc12 [compound 94] | 1580 | > 10000 | 3160 | 1000 | – |
| CN1CCN(c2ccc(Nc3ncc4ncn(C5CCCCC5)c4n3)cc2)CC1 [Co. No. 5] | 631 | > 10000 | > 10000 | 3160 | 203.5 to 203.6 |
| OCCCC1CCN(c2ccc(Nc3ncc4cnn(C5CCCCC5)c4n3)cc2)CC1 [compound 10] | 79.4 | > 10000 | 50.1 | 12.6 | – |
| c1cc(N2CCOCC2)ccc1Nc1ncc2cnn(C3CCCCC3)c2n1 [compound 12] | 39.8 | 251 | 63.1 | 20 | – |
| O=c1[nH]n(C2CCCC2)c2nc(Nc3ccc(N4CCC(CCCO)CC4)cc3)ncc12 [compound 92] | 6310 | > 10000 | – | 2510 | – |
| CN1CCN(c2ccc(Nc3ncc4cnn(-c5ccccc5)c4n3)cc2)CC1 [compound 14] | 20 | 794 | 79.4 | 3.98 | – |
| CN1CCN(c2ccc(Nc3ncc4cnn(C5CCCC5)c4n3)cc2)CC1 [compound 11] | 31.6 | 398 | 158 | 6.31 | – |
| O=S(=O)(c1ccc(Nc2ncc3cnn(C4CCCCC4)c3n2)cc1)N1CCOCC1 [Co. No. 8] | 100 | > 10000 | 501 | – | 240 |
| CN1CCN(c2ccc(Nc3ncc4cnn(C5CCCCC5)c4n3)cc2)CC1 [Co. No. 1] | 3.16 | 251 | 126 | 5.01 | 180 |
| O=c1[nH]c2cnc(Nc3ccc(N4CCOCC4)cc3)nc2n1C1CCCCC1 [compound 78] | 1000 | – | – | 631 | – |
| O=C(NC1CCN(CCO)CC1)c1ccc(Nc2ncc3cnn(C4CCCCC4)c3n2)cc1 [Co. No. 9] | 126 | 794 | 251 | – | 177 to 181 |
| OCCCC1CCN(c2ccc(Nc3ncc4cnn(C5CCCC5)c4n3)cc2)CC1 [compound 13] | 63.1 | > 10000 | 50.1 | 50.1 | – |
| CN1CCN(c2ccc(Nc3ncc4[nH]c(=O)n(C5CCCCC5)c4n3)cc2)CC1 [Co. No. 6] | 251 | > 10000 | > 10000 | 100 | 294 |
| O=c1[nH]n(C2CCCC2)c2nc(Nc3ccc(N4CCOCC4)cc3)ncc12 [compound 93] | 5010 | > 10000 | 1580 | 2510 | – |
| CN1CCN(C(=O)c2ccc(Nc3ncc4[nH]c(=O)n(C5CCCCC5)c4n3)cc2)CC1 [compound 83] | 2510 | > 10000 | > 10000 | – | – |
| CN1CCN(C(=O)c2ccc(Nc3ncc4cnn(C5CCCCC5)c4n3)cc2)CC1 [Co. No. 3] | 6.31 | > 10000 | 501 | – | – |
| COCCCN1CCC(NC(=O)c2ccc(Nc3ncc4cnn(C5CCCCC5)c4n3)cc2)CC1 [compound 97] | 631 | 501 | 398 | – | – |
| CN1CCN(c2ccc(Nc3ncc4c(=O)[nH]n(C5CCCCC5)c4n3)cc2)CC1 [Co. No. 7] | 79.4 | 398 | – | 158 | > 260 |
| CC(C)(C)OC(=O)N(c1ccc(CN2CCOCC2)cc1)c1ncc2cnn([C@H]3C[C@@H]4CC[C@H]3C4)c2n1 [compound 41] | 3980 | 3160 | 3160 | – | – |
| CN1CCN(Cc2ccc(Nc3ncc4cnn([C@H]5C[C@@H]6CC[C@H]5C6)c4n3)cc2)CC1 [compound 36] | 100 | > 10000 | 251 | – | – |
